≈ marks a conversion by molar mass, not a printed value. Positions of bridges follow the written chain, without caps; N, C: chain ends. Non-standard residues stand in square brackets, D forms with d. Residues, ends and D or L forms follow the SMILES beside them. dCha = N[C@H](CC1CCCCC1)C(=O)O A value given as a limit tells only on which side of the number the result lay.

The text below walks through data of paper PMC12481569, “Novltex: A New Class of Antibiotics with Potent Activity against Multidrug-Resistant Bacterial Pathogens–Design, Synthesis, and Biological Evaluation” (Journal of Medicinal Chemistry, 2025).

Data set [1] concerns MRSA ATCC 33591. As to the kind of experiment: Time-kill kinetics. The format is cell-based, Staphylococcus aureus. The settings on record: 2.5 μg/mL (10× MIC), MHB with 0.002% polysorbate 80, 37 °C, two independent experiments in duplicate. The method, then:
Early-stage time-kill kinetics for analogue 12 against MRSA ATCC 33591 were performed using vancomycin as a control, following the protocol described in Section VIII, Supporting Information.
3 Time-kill kinetics of Novltex analogue 12 and clinical antibiotic (vancomycin) against MRSA 33591. […] Results are the mean ± SD of two independent experiments performed in duplicate.
(§1) MICs were performed as previously reported 4. For MIC testing all peptides were dissolved in DMSO.
(§2) Bacterial cultures were grown overnight on Mueller-Hinton Agar (MHA) plates and adjusted to a final inoculum of 10^5 – 10^6 CFU/mL. 100 µl of ino culum in Meuller -Hinton broth (MHB) was mixed with equal volume of peptides (dissolved in MHB) at 2x their concentration in a 96 well plate . For daptomycin MIC determination, the same protocol was followed with the addition of 50 mg/L calcium chloride to the medium. MIC values were determined in the media contain ing polysorbate 80 (0.002%, v/v) to prevent non -specific adsorption of the peptides to plastic surfaces. The final peptides concentrations ranged from 0.0625 – 32 µg/mL. The 96 well plates were then incubated at 37 °C for 24 h. All the experiments were performed in two independent duplicates and the MIC was determined as the lowest concentration in which no visible growth was observed.
Antibiotics MIC break points ( µg/mL)
Table. […]

Data set [2] concerns HEK293T. Kind of data set: Cytotoxicity, MTS-based assay. The format is cell-based, human. The settings on record: up to 50 μg/mL, 24 or 48 h, three independent experiments in triplicate. The method, then:
(§3) 4 Cytotoxicity evaluation of analogue 12. Human primary dermal fibroblasts (A), liver cell line HepG2 (B), and kidney cell line HEK293T (C) cells (5 × 10^3 cells/well in 96-well plates) were treated with increasing concentrations of analogue 12 or 1 μM staurosporine (STS, used as a positive toxicity control) for 24 or 48 h, as indicated. Viability of cells was determined using an MTS-based assay. Results (% cell viability) are the mean ± SD of three independent experiments performed in triplicate. (D) Freshly collected human red blood cells (RBCs) were exposed to increasing concentrations of 12 or Triton X-100 (TX), as indicated, for 1 h. Hemolytic activity (% hemolysis) was determined by spectrophotometrically measuring the release of hemoglobin compared to that with TX (used as a positive control). Results are the mean ± SD of 4 independent experiments performed in duplicate using blood samples from four different anonymous healthy donors. […]
(§4) Bacterial cultures were grown overnight on Mueller-Hinton Agar (MHA) plates and adjusted to a final inoculum of 10^5 – 10^6 CFU/mL. […] MIC values were determined in the media contain ing polysorbate 80 (0.002%, v/v) to prevent non -specific adsorption of the peptides to plastic surfaces. […] All the experiments were performed in two independent duplicates and the MIC was determined as the lowest concentration in which no visible growth was observed. […]

Data set [3] concerns HepG2. Kind of data set: Cytotoxicity, MTS-based assay. The settings on record: up to 50 μg/mL, 24 or 48 h, three independent experiments in triplicate. The format is cell-based, human. As for the experimental part:
as §3, §4

Data set [4] has as its system MRSA ATCC 33591. Kind of data set: microbe, parasite or virus in culture. The data set is classed as cell-based, Staphylococcus aureus. Conditions: Table 2; MHB with 0.002% polysorbate 80, 37 °C, 24 h, two independent duplicates. The method, then: as §1
as §2, with “observed. […]” for “observed.”

In the case of `CC(C)C[C@@H]1NC(=O)[C@H](C)NC(=O)[C@H](NC(=O)[C@H](CO)NC(=O)[C@@H](CCCCN)NC(=O)[C@@H](CC2CCCCC2)NC(=O)[C@@H](N)Cc2ccccc2)[C@H](C)OC(=O)[C@H](CC(C)C)NC1=O` [analogue 12, Leu2Cha–Novltex] (H-F[dCha][dK]S[dT]ALL; ester 5-C), in data set [1], the “time to significant bacterial killing” value is given as at most 6 h. Moreover, in data set [2], the “cytotoxicity (cell viability), HEK293T” value was “no major cytotoxicity”. Also, in data set [3], the “cytotoxicity (cell viability), HepG2” value is listed as “no major cytotoxicity”. The “MIC against MRSA ATCC 33591” value in data set [4] was found to be 0.25 µg/mL (≈ 0.273 µM).
